Experimental data published in US9296741B2, “Bromodomain inhibitors” (priority 2012, dated 2016).
Marks after values point to notes of the source that are not given here.

Assays:
A-375 = test: Proliferation panel assay, Melanoma A-375; format: cell-based; conditions: Homo sapiens, read-out: Cellular Proliferation EC50
[1] = target: human BRD4 first bromodomain (BDI_K57-E168) (Homo sapiens (Human), UniProt O60885); test: TR-FRET bromodomain binding assay, BRD4 first bromodomain
MDAMB231 = test: Proliferation panel assay, Breast MDAMB231; format: cell-based; conditions: Homo sapiens, MDA-MB-231, read-out: Cellular Proliferation EC50
[2] = Rat liver microsome stability assay; format: in vitro ADME; conditions: rat liver microsomes (male Sprague-Dawley), 0.5 μM test compound, 0.25 mg/mL microsomal protein, pH 7.4, 37° C.; read-out: Stability in rat liver microsomes (t1/2 in minutes)
[3] = target: human BRD4 second bromodomain (BDII_E352-M457) (Homo sapiens (Human), UniProt O60885); test: TR-FRET bromodomain binding assay, BRD4 second bromodomain
PC3M = test: Proliferation panel assay, Prostate PC3M; format: cell-based; conditions: Homo sapiens, PC-3M, read-out: Cellular Proliferation EC50
[4] = system: MX-1 human breast cancer xenograft tumors; test: Xenograft tumor growth inhibition assay, MX-1; format: in vivo, mouse; conditions: MX-1, PO, BID (5 on, 3 off)x2, vehicle F
H460 = test: Proliferation panel assay, NSCLC H460; format: cell-based; conditions: Homo sapiens, NCI-H460, read-out: Cellular Proliferation EC50
D54MG = test: Proliferation panel assay, Glioblastoma D54MG; format: cell-based; conditions: read-out: Cellular Proliferation EC50
786-0 = test: Proliferation panel assay, RCC 786-0; format: cell-based; conditions: Homo sapiens, read-out: Cellular Proliferation EC50
MDAMB453 = test: Proliferation panel assay, Breast MDAMB453; format: cell-based; conditions: Homo sapiens, MDA-MB-453, read-out: Cellular Proliferation EC50
FaDu = test: Proliferation panel assay, Head & Neck FaDu; format: cell-based; conditions: Homo sapiens, read-out: Cellular Proliferation EC50
NCI-H929 = test: Proliferation panel assay, Multiple Myeloma NCI-H929; format: cell-based; conditions: Homo sapiens, read-out: Cellular Proliferation EC50
OPM2 = test: Proliferation panel assay, Multiple Myeloma OPM2; format: cell-based; conditions: Homo sapiens, OPM-2, read-out: Cellular Proliferation EC50
H1299 = test: Proliferation panel assay, NSCLC H1299; format: cell-based; conditions: Homo sapiens, NCI-H1299, read-out: Cellular Proliferation EC50
EJ-1 = test: Proliferation panel assay, Bladder EJ-1; format: cell-based; conditions: EJ1, read-out: Cellular Proliferation EC50
[5] = Mouse liver microsome stability assay; format: in vitro ADME; conditions: male, CD1, mouse, microsomes, pH 7.4
[6] = system: breast cancer cell line MX-1; test: MX-1 cell line proliferation assay; format: cell-based, human; conditions: Homo sapiens, MX1, 72 h; MX-1 cells, 3-day proliferation, Cell Titer Glo; read-out: Cellular proliferation: EC50
RPMI-8226 = test: Proliferation panel assay, Multiple Myeloma RPMI-8226; format: cell-based; conditions: Homo sapiens, read-out: Cellular Proliferation EC50
HPAC = test: Proliferation panel assay, Pancreas HPAC; format: cell-based; conditions: Homo sapiens, read-out: Cellular Proliferation EC50
Raji = test: Proliferation panel assay, AML Raji; format: cell-based; conditions: Homo sapiens, Burkitt lymphoma, read-out: Cellular Proliferation EC50
SKM1 = test: Proliferation panel assay, AML SKM1; format: cell-based; conditions: Homo sapiens, SKM-1, read-out: Cellular Proliferation EC50
H1975 = test: Proliferation panel assay, NSCLC H1975; format: cell-based; conditions: Homo sapiens, NCI-H1975, read-out: Cellular Proliferation EC50
DLD-1 = test: Proliferation panel assay, Colon DLD-1; format: cell-based; conditions: Homo sapiens, read-out: Cellular Proliferation EC50
[7] = system: Ramos human cancer cell xenograft; test: Xenograft efficacy study, Ramos; format: in vivo, mouse; conditions: 3.125 mg/kg/day, PO, BID (5 d on, 3 d off)x2, vehicle F
Ramos = test: Proliferation panel assay, NHL Ramos; format: cell-based; conditions: Homo sapiens, read-out: Cellular Proliferation EC50
HepG2 = test: Proliferation panel assay, Hepatocellular HepG2; format: cell-based; conditions: Homo sapiens, read-out: Cellular Proliferation EC50
Ly18 = test: Proliferation panel assay, NHL Ly18; format: cell-based; conditions: read-out: Cellular Proliferation EC50
SK-LMS-1 = test: Proliferation panel assay, Sarcoma SK-LMS-1; format: cell-based; conditions: Homo sapiens, read-out: Cellular Proliferation EC50
[8] = Human liver microsome stability assay; format: in vitro ADME; conditions: both sexes, human, microsomes, pH 7.4
BxPC3FP5 = test: Proliferation panel assay, Pancreas BxPC3FP5; format: cell-based; conditions: read-out: Cellular Proliferation EC50
GEO = test: Proliferation panel assay, Colon GEO; format: cell-based; conditions: read-out: Cellular Proliferation EC50
[9] = system: LPS induced IL-6 production; test: LPS (lipopolysaccharide) induced IL-6 production mouse assay; format: in vivo; conditions: Mus musculus, read-out: Inhibition of LPS induced IL-6 production in Mice, % inhibition at 3 mg/kg; 3 mg/kg oral, 1 h before LPS; serum IL-6 2 h after LPS

What does the source list for Cn1cc(-c2cc(NS(C)(=O)=O)ccc2Oc2ccccc2)c2cc[nH]c2c1=O [Example 4, N-[3-(6-methyl-7-oxo-6,7-dihydro-1H-pyrrolo[2,3-c]pyridin-4-yl)-4-phenoxyphenyl]methanesulfonamide]?
EC50 (A-375): 20 nM; Ki [1]: 1.4 nM; EC50 (MDAMB231): 220 nM; half-life at 0.5 μM [2]: 4 min; Ki [3]: 2 nM; EC50 (PC3M): 70 nM; % TGD (tumor growth delay) ([4]; 12.5 mg/kg/day): 70*** %; % TGI (tumor growth inhibition) ([4]; 12.5 mg/kg/day): 73*** %; % removed from study ([4]; 12.5 mg/kg/day): 10%; % TGD (tumor growth delay) ([4]; 25 mg/kg/day): 81*** %; % TGI (tumor growth inhibition) ([4]; 25 mg/kg/day): 77*** %; % removed from study ([4]; 25 mg/kg/day): 30%; EC50 (H460): 3770 nM; EC50 (D54MG): 38 nM; EC50 (786-0): 11 nM; EC50 (MDAMB453): 20 nM; EC50 (FaDu): 20 nM; EC50 (NCI-H929): 3 nM; EC50 (OPM2): 1 nM; EC50 (H1299): 60 nM; EC50 (EJ-1): 202 nM; half-life at 0.5 μM [5]: 57 min; EC50 [6]: 16.4 nM; EC50 (RPMI-8226): 11 nM; EC50 (HPAC): 50 nM; EC50 (Raji): 6 nM; EC50 (SKM1): 5 nM; EC50 (H1975): 20 nM; EC50 (DLD-1): 200 nM; % TGD (tumor growth delay) [7]: 27* %; % TGI (tumor growth inhibition) [7]: 19%; % removed from study [7]: 0%; EC50 (Ramos): 20 nM; EC50 (HepG2): 74.6 nM; EC50 (Ly18): 20 nM; EC50 (SK-LMS-1): 25 nM; half-life at 0.5 μM [8]: 59 min; EC50 (BxPC3FP5): 10 nM; EC50 (GEO): 80 nM; inhibition in vivo at 3 mg/kg [9]: 69%

With Cn1nc(-c2cc(NS(C)(=O)=O)ccc2Oc2ccccc2)c2cc(C(N)=O)[nH]c2c1=O [Example 78, 6-methyl-4-{5-[(methylsulfonyl)amino]-2-phenoxyphenyl}-7-oxo-6,7-dihydro-1H-pyrrolo[2,3-d]pyridazine-2-carboxamide] as the molecule, how does the EC50 (A-375) read?
The EC50 was 3610 nM.

What about the Ki [1] of the same molecule?
Its Ki is 2.5 nM.

And the EC50 (MDAMB231)?
The EC50 was 1220 nM.

What about the Ki [3] of the same molecule?
The Ki was 1.8 nM.

And the EC50 (PC3M)?
Its EC50 is 8110 nM.

What about the EC50 (H460) of the same molecule?
Its EC50 is > 10000 nM.

What about the EC50 (D54MG) of the same molecule?
The EC50 was 2300 nM.

What about the EC50 (786-0) of the same molecule?
Its EC50 is 884 nM.

What about the EC50 (MDAMB453) of the same molecule?
Its EC50 is 240 nM.

And the EC50 (FaDu)?
Its EC50 is 390 nM.

What about the EC50 (NCI-H929) of the same molecule?
Its EC50 is 154 nM.

What about the EC50 (OPM2) of the same molecule?
The EC50 was 39 nM.

What about the EC50 (H1299) of the same molecule?
The EC50 was 2570 nM.

And the EC50 (EJ-1)?
Its EC50 is 2090 nM.

And the EC50 [6]?
The EC50 was 400 nM.

What about the EC50 (RPMI-8226) of the same molecule?
The EC50 was 1400 nM.

What about the EC50 (HPAC) of the same molecule?
The EC50 was 1190 nM.

What about the EC50 (Raji) of the same molecule?
The EC50 was 84 nM.

And the EC50 (SKM1)?
Its EC50 is 58 nM.

What about the EC50 (H1975) of the same molecule?
The EC50 was 1370 nM.

What about the EC50 (DLD-1) of the same molecule?
Its EC50 is 4970 nM.

And the EC50 (Ramos)?
The EC50 was 320 nM.

And the EC50 (HepG2)?
The EC50 was 885 nM.

What about the EC50 (Ly18) of the same molecule?
The EC50 was 420 nM.

What about the EC50 (SK-LMS-1) of the same molecule?
The EC50 was 934 nM.

And the EC50 (BxPC3FP5)?
The EC50 was 740 nM.

What about the EC50 (GEO) of the same molecule?
The EC50 was 1290 nM.
